Target: T1, ligand binding domain of ERR-α (aa 183-424) (Homo sapiens, UniProt P11474)
T1 construct: His tag (N); thrombin cleavage site (N); made in house; host or cells: E. coli BL21(DE3+)
T1 sequence (P11474 183-423 limits assumed): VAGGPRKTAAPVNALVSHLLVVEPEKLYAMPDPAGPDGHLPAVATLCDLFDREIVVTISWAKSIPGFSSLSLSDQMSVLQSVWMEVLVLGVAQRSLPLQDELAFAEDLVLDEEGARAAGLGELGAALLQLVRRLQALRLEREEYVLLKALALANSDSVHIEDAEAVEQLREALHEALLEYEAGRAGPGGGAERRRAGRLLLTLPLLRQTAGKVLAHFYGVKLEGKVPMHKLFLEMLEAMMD
Test: ThermoFluor thermal-shift binding affinity screen against ERR-α ligand binding domain
Conditions: 100 μM test compound, 0.1 mg/mL ERR-α, pH 7.6, Kd estimated from melting temperature shift at reference temperature, read-out: TF Kd
Method: The ligand binding domain of ERR-α (aa 183-424) was subcloned in frame with the N-terminal His tag and the cleavable thrombin site in pET28. The protein was expressed in BL21(DE3^+) following induction with 100 μM IPTG at 16° C. Cells were harvested after 16 hours (h) of induction and lysed in 20 mM Tris pH 7.5, 500 mM NaCl, 5 mM imidazole, 5% glycerol, protease inhibitor cocktail (-EDTA) and 2 mM β-ME. Insoluble material was removed by centrifugation at 40,000×g for 1 hr. Clarified homogenate was applied on a Ni-NTA column and after applying an imidazole gradient the protein was eluted. The protein was further purified on size exclusion chromatography to an apparent homogeneity of 95% as judged by SDS-PAGE chromatography.
Binding affinities of compounds were determined by screening against the ligand binding domain of ERR-α using ThermoFluor® technology (U.S. Pat. No. 6,020,141 and U.S. Pat. No. 6,036,920, and Journal of Biomolecular Screening 6 (6), […], pgs 429-440). Assay plates were prepared by dispensing 2 μL of a protein-dye solution and 2 μL of the test compound in a 384-well plate. The conditions used in the screen were: 0.1 mg/mL ERR-α, 25 mM Na-phosphate buffer at pH 7.6, 200 mM NaCl, 10% glycerol, 16 μM ANS, 2% DMSO and the final concentration of test compound was 100 μM. Finally 1 μL of mineral oil was dispensed on top to prevent evaporation during the high throughput screen (HTS). ThermoFluor® is an HTS assay that measures protein unfolding based on fluorescence detection of the denatured form of the protein. The reporter for the protein unfolding event is the environmentally sensitive dye ANS that is incorporated in the screening buffer. During a typical experiment the 384-well plate is heated at a ramping rate of 1° C./min and the thermal unfolding of the protein is monitored at 1° C. intervals by measuring fluorescence changes detected through a CCD camera. Captured images are integrated and a melting curve is generated that relates fluorescence to fraction of unfolded protein as a function of temperature. For the ERR-α screen, data were collected from 30 to 80° C. at 1° C. intervals and the protein melted under the screening conditions with a characteristic melting temperature, Tm, of 52.1° C. Hits were identified from the screen by measuring an increase in the melting temperature of the protein.
In order to estimate binding affinities, it was taken into account that the oligomeric state of ERR-α, which is a dimer (N2), and that of a single ligand (Lf) can interact per monomer subunit with equal affinity. The melting curve for such a system is described by the following three equilibria: [formula] The first equilibrium describes the denaturation of ERR-α dimers; the second equilibrium describes the dissociation of the first ligand from the single ligand occupied ERR-α dimers (N2L); and the third equilibrium describes the dissociation of the second ligand from the fully occupied ERR-α dimers (N2L2).
Following the derivations of Brandts and Lin (Biochemistry, 29, 6967, 1990) the dissociation constants for the ligands (Kd1^t^m) can be determined at T=Tm for any ligand concentration Lt by solving numerically the conservation of mass equations: [formula] and Ku is in the unfolding equilibrium constant for ERR-α dimers that is calculated from the melting curve of the protein in the absence of ligand as described by Pantoliano et al. (J. Biomolecular Screening, 6, 429, 2001) and Bowie & Sauer (Biochemistry, 28, 7139, 1989).
To compare dissociation constants at a common reference temperature, Tref, the following equation was used: [formula] where • Kd^ref=is the dissociation constant of the ligand at a reference temperature Tref • ΔHb^ref=is the binding enthalpy of the ligand to the protein at a reference temperature Tref. […]

**Q.** With `COc1ccc(Oc2ccc(/C=C3\SC(=O)NC3=O)cc2)cc1` [Example 16, 5-[4-(4-Methoxy-phenoxy)-benzylidene]-thiazolidine-2,4-dione] as the compound, how does the Kd read?
**A.** 3.53 µM

**Q.** How did the Kd turn out when `COc1cc(/C=C(\C#N)c2ccccn2)ccc1Oc1ccc(C(F)(F)F)cc1[N+](=O)[O-]` [Example 27, 3-[3-Methoxy-4-(2-nitro-4-trifluoromethyl-phenoxy)-phenyl]-2-pyridin-2-yl-acrylonitrile] was run?
**A.** 1.38 µM

**Q.** With `CCOC(=O)/C(C#N)=C/c1ccc(Oc2ccc(C(F)(F)F)cc2[N+](=O)[O-])c(OC)c1` [Example 24, 2-Cyano-3-[3-methoxy-4-(2-nitro-4-trifluoromethyl-phenoxy)-phenyl]-acrylic acid ethyl ester] as the compound, how does the Kd read?
**A.** 2.54 µM

**Q.** Which Kd does the source give for `CCOC(=O)CN1C(=O)S/C(=C\c2ccc(Oc3ccc(C(F)(F)F)cc3[N+](=O)[O-])c(OC)c2)C1=O` [Example 17, {5-[3-Methoxy-4-(2-nitro-4-trifluoromethyl-phenoxy)-benzylidene]-2,4-dioxo-thiazolidin-3-yl}-acetic acid ethyl ester] here?
**A.** 4.86 µM

**Q.** Which Kd does the source give for `COc1cc(/C=C(\C#N)S(=O)(=O)c2ccccc2)ccc1Oc1ccc(C(F)(F)F)cc1[N+](=O)[O-]` [Example 23, 2-Benzenesulfonyl-3-[3-methoxy-4-(2-nitro-4-trifluoromethyl-phenoxy)-phenyl]-acrylonitrile] here?
**A.** 14.6 µM

**Q.** `COc1cc(/C=C2/NC(=S)NC2=O)ccc1Oc1ccc(C(F)(F)F)cc1[N+](=O)[O-]` [Example 31, 5-[3-4-(2-nitro-4-trifluoromethyl-phenoxy)-benzylidene]-2-thioxo-imidazolidin-4 4-one] was tested. Which Kd did it give?
**A.** 2.2 µM

**Q.** With `O=C1NC(=O)/C(=C/c2ccc(Oc3ccccc3)cc2)S1` [Example 20, 5-(4-Phenoxy-benzylidene)-thiazolidine-2,4-dione] as the compound, how does the Kd read?
**A.** 9.5 µM

**Q.** With `COc1cc(/C=C(\C#N)c2nc3ccccc3[nH]2)ccc1Oc1ccc(C(F)(F)F)cc1[N+](=O)[O-]` [Example 26, 2-(1H-Benzoimidazol-2-yl)-3-[3-methoxy-4-(2-nitro-4-trifluoromethyl-phenoxy)-phenyl]-acrylonitrile] as the compound, how does the Kd read?
**A.** 15.2 µM

**Q.** Which Kd does the source give for `CCCCN1C(=O)S/C(=C\c2ccc(Oc3ccc(C(F)(F)F)cc3[N+](=O)[O-])c(OC)c2)C1=O` [Example 19, 3-Butyl-5-[3-methoxy-4-(2-nitro-4-trifluoromethyl-phenoxy)-benzylidene]-thiazolidine-2,4-dione] here?
**A.** 2.7 µM

**Q.** `COc1cc(/C=C2\SC(=O)NC2=O)cc(Cl)c1Oc1ccc(C(F)(F)F)cc1[N+](=O)[O-]` [Example 13, 5-[3-Chloro-5-methoxy-4-(2-nitro-4-trifluoromethyl-phenoxy)-benzylidene]-thiazolidine-2,4-dione] was tested. Which Kd did it give?
**A.** 79.5 µM

**Q.** `COc1cc(/C=C2\SC(=O)NC2=O)ccc1OCc1cccc(F)c1` [Example 38, 5-[4-(3-Fluoro-benzyloxy)-3-methoxy-benzylidene]-thiazolidine-2,4-dione] was tested. Which Kd did it give?
**A.** 3.18 µM

**Q.** With `CCN1C(=O)/C(=C\c2ccc(Oc3ccc(C(F)(F)F)cc3[N+](=O)[O-])c(OC)c2)SC1=S` [Example 36, 3-Ethyl-5-[3-methoxy-4-(2-nitro-4-trifluoromethyl-phenoxy)-benzylidene]-2-thioxo-thiazolidin-4-one] as the compound, how does the Kd read?
**A.** 20.3 µM

**Q.** Which Kd does the source give for `COc1cc(/C=C(/C(=O)c2cccs2)C(=O)C(F)(F)F)ccc1Oc1ccc(C(F)(F)F)cc1[N+](=O)[O-]` [Example 29, 4,4,4-Trifluoro-2-[3-methoxy-4-(2-nitro-4-trifluoromethyl-phenoxy)-benzylidene]-1-thiophen-2-yl-butane-1,3-dione] here?
**A.** 15.4 µM

**Q.** With `COc1cc(/C=C2\SC(=O)NC2=O)ccc1Oc1ccc(C(F)(F)F)cc1[N+](=O)[O-]` [Example 10, 5-[3-Methoxy-4-(2-nitro-4-trifluoromethyl-phenoxy)-benzylidene]-thiazolidine-2,4-dione] as the compound, how does the Kd read?
**A.** 0.234 µM

**Q.** For `COc1cc(C=C2C(=O)c3ccccc3C2=O)ccc1Oc1ccc(C(F)(F)F)cc1[N+](=O)[O-]` [Example 33, 2-[3-4-(2-nitro-4-trifluoromethyl-phenoxy)-benzylidene]-indan-1,3-dione], which Kd is on record?
**A.** 0.473 µM

**Q.** How did the Kd turn out when `O=C1NC(=O)/C(=C/c2ccc(Oc3ccc(C(F)(F)F)cc3[N+](=O)[O-])cc2)S1` [Example 14, 5-[4-(2-Nitro-4-trifluoromethyl-phenoxy)-benzylidene]-thiazolidine-2,4-dione] was run?
**A.** 0.588 µM

**Q.** How did the Kd turn out when `COC(=O)c1ccc(Oc2ccc(/C=C3\SC(=O)NC3=O)cc2OC)c([N+](=O)[O-])c1` [Example 18, 4-[4-(2,4-Dioxo-thiazolidin-5-ylidenemethyl)-2-methoxy-phenoxy]-3-nitro-benzoic acid methyl ester] was run?
**A.** 0.0692 µM

**Q.** Which Kd does the source give for `COc1cc(/C=C(\C#N)C(=O)c2ccccc2)ccc1Oc1ccc(C(F)(F)F)cc1[N+](=O)[O-]` [Example 28, 2-Benzoyl-3-[3-methoxy-4-(2-nitro-4-trifluoromethyl-phenoxy)-phenyl]-acrylonitrile] here?
**A.** 0.608 µM

**Q.** With `O=C1NC(=O)/C(=C\c2cccc(Oc3cccc(Cl)c3)c2)S1` [Example 21, 5-[3-(3-Chloro-phenoxy)-benzylidene]-thiazolidine-2,4-dione] as the compound, how does the Kd read?
**A.** > 200 µM

**Q.** Which Kd does the source give for `COc1cc(C=C2C(=O)c3ccccc3C2=O)ccc1OCc1cccc(F)c1` [Example 40, 2-[4-(3-Fluoro-benzyloxy)-3-methoxy-benzylidene]-indan-1,3-dione] here?
**A.** 17.7 µM

**Q.** `COc1cc(/C=C(\C#N)c2cccs2)ccc1Oc1ccc(C(F)(F)F)cc1[N+](=O)[O-]` [Example 25, 3-[3-Methoxy4-(2-nitro4-trifluoromethyl-phenoxy)-phenyl]-2-thiophen-2-yl-acrylonitrile] was tested. Which Kd did it give?
**A.** 7.17 µM

**Q.** For `COc1ccc(Oc2ccc(C=C3SC(N)=NC3=O)cc2)cc1` [Example 9, 2-Amino-5-[4-(4-methoxy-phenoxy)-benzylidene]-thiazol-4-one], which Kd is on record?
**A.** 24.7 µM

**Q.** Which Kd does the source give for `COc1cc(C=C(C#N)C#N)ccc1Oc1ccc(C(F)(F)F)cc1[N+](=O)[O-]` [Example 22, 2-[3-Methoxy-4-(2-nitro-4-trifluoromethyl-phenoxy)-benzylidene]-malononitrile] here?
**A.** 5.06 µM

**Q.** How did the Kd turn out when `COc1cc(/C=C2\SC(=O)NC2=O)ccc1OCc1ccc(F)cc1Cl` [Example 37, 5-[4-(2—Chloro-4-fluoro-benzyloxy)-3-methoxy-benzylidene]-thiazolidine-2,4-dione] was run?
**A.** 0.414 µM

**Q.** With `COc1cc(/C=C2\C(=O)N(c3ccccc3)N=C2C)ccc1Oc1ccc(C(F)(F)F)cc1[N+](=O)[O-]` [Example 30, 4-[3-Methoxy-4-(2-nitro-4-trifluoromethyl-phenoxy)-benzylidene]-5-methyl-2-phenyl-2,4-dihydro-pyrazol-3-one] as the compound, how does the Kd read?
**A.** 1.16 µM

**Q.** Which Kd does the source give for `COC(=O)c1ccc(Oc2ccc(C=C3C(=O)c4ccccc4C3=O)cc2OC)c([N+](=O)[O-])c1` [Example 35, 4-[4-(1,3-Dioxo-indan-2-ylidenemethyl)-2-methoxy-phenoxy]-3-nitro-benzoic acid methyl ester] here?
**A.** 0.52 µM

**Q.** How did the Kd turn out when `COc1cc(/C=C2\C(=O)ON=C2c2ccccc2)ccc1Oc1ccc(C(F)(F)F)cc1[N+](=O)[O-]` [Example 32, 4-[3-4-(2-nitro-4-trifluoromethyl-phenoxy)-benzylidene]-3-phenyl-4H-isoxazol-5-one] was run?
**A.** 0.795 µM

— US20060014812A1, “Use of estrogen related receptor-modulating aryl ethers” (priority 2004, published 2006)
